In brackets after ≈: the same amount, converted by molar mass. Read-outs that look alike come from different tables or passages of the source.
Assays:
Sarcoma 180 = assay: Carcinostatic effect against Sarcoma 180 of a mouse, and toxicity (Example 5); assay type: in vivo; conditions: for toxicity: general debility, decrease in weight and napping; for ratio of tumor in wt.: seven days, Control 1.00
Protocol: Mice were separated into 7 groups of 10 mice. Sarcoma 180, having an initial cell number of 5×10^5, was innoculated hypodermically into each subject. After 24 hours, each composition was given to the subject mouse, except the Control, at the dose as shown in Table 3 for seven (7) consecutive days. On the tenth day from the initial innoculation, each subject was anatomized to examine the tumor weight, the average of which was then compared with that of the Control. Toxicity was also interpreted in view of general debility, decrease in weight and napping. In this test, 3-N-o-toluyl-5-FU was administered orally in the form of powder mixed with water, which was isolated by chromatography from that in oil emulsion.

[1] = test system: AH 130 (tumor cells of liver cancer of a rat); assay: Carcinostatic effect against AH 130 (tumor cells of liver cancer of a rat), and toxicity (Example 5); assay type: in vivo; conditions: for ratio of tumor in wt.: seven days, Control 1.00
Protocol: To further show the advantageous effects of 3-N-o-toluyl-5-FU of the present invention over related compounds known in the art, such as FT-207 and 5-FU, tests were conducted in accordance with the procedures as described below and the results are presented in Tables 3 and 4.
Rats were separated into 7 groups of 10 rats. AH 130, having an initial cell number of 5×10^5, was injected hypodermically into each subject and, after 24 hours, each composition was given to each subject rat at the dose shown in Table 4 for seven (7) consecutive days. On the 10th day from the initial innoculation, each subject was anatomized to examine the tumor weight, the average of which was compared with that of the non-treated Control. In this test, 3-N-o-toluyl-5-FU was also administered orally in the form of powder as in the former test.

Ehrich cancerous cells = assay: growth inhibition of Ehrich cancerous cells in culture (Example 6); assay type: cell-based, mouse; conditions: for MIC / IC50: Mus musculus, 72 h; for IC50: Ehrlich, dose per unit volume effective for 50% of the cells, read-out: ED50 (the source's name)
Protocol: Cancerous cells employed:
(1) Ehrich cancerous cells of mouse;
Each kind of said cancerous cells, having an initial number of 3×10^4 and 4×10^4 was cultured in a nutrient medium on a slide glass in a flat bottle for 24 hours to make more than one sample, respectively; half for 5-FU and the other for 3-N-o-toluyl-5-FU in oil emulsion. Then 5-FU diluted with water of different concentrations and 3-N-o-toluyl-5-FU in oil emulsion of different concentrations was respectively added to the cells of each of said plate to make several different concentrations of said compounds per unit volume of each cell, and the culture was continued for three days. […] As a nutrient medium, MEM S10 or HAM-F S10 was employed.

[2] = test system: human thyroid cancer cells; assay: growth inhibition of human thyroid cancerous cells in culture (Example 7); assay type: cell-based; conditions: for IC50 / MIC: Homo sapiens, 72 h; for IC50: dose per unit volume effective for 50% of the cells, read-out: ED50 (the source's name)
Text: (§1) Included in Tables 5 through 7 for comparison are carcinostatic effect of 3-N-o-toluyl-5-FU on various kinds of cancerous cells. In these tables, MIC represents minimum inhibitory concentration (γ or microgram/ml) required to inhibit the growth of cancerous cells in a culture medium and ED50 (γ or microgram/ml) represents the dose per unit volume effective for 50% of the cells.
(2) Human thyroid cancerous cells; and
(§2) Each kind of said cancerous cells, having an initial number of 3×10^4 and 4×10^4 was cultured in a nutrient medium on a slide glass in a flat bottle for 24 hours to make more than one sample, respectively; half for 5-FU and the other for 3-N-o-toluyl-5-FU in oil emulsion. Then 5-FU diluted with water of different concentrations and 3-N-o-toluyl-5-FU in oil emulsion of different concentrations was respectively added to the cells of each of said plate to make several different concentrations of said compounds per unit volume of each cell, and the culture was continued for three days. The manner of the action of each of said compounds against each of the cells at different concentrations (weight per unit volume of cell) was observed by an inverted phase contrast microscope with the passage of time, as well as the multiplication and the change in morphology of the cells were examined by fixing and staining the cells on the slide glass after a period of three days. As a nutrient medium, MEM S10 or HAM-F S10 was employed. HAM-F S10 is a 10% serum supplemented medium described by Richard G. Ham in 1964, and is sold under the tradename "HAM F12 Nissui" in Japan.
(§3) The molecular weight of 5-FU is about 130 and that of 3-N-o-toluyl-5-FU is about 248. […] Accordingly, as used in the following explanations, the terms "weight concentration" refers to the γgm/ml of each compound used in a given test, and the term "molarity" generally refers to the number of molecules of each compound present in a given amount used in a test.

Leiomyosarcoma cells = assay: growth inhibition of leiomyosarcoma cells in culture (Example 8); assay type: cell-based, human; conditions: for IC50 / MIC: Homo sapiens, 72 h; for IC50: dose per unit volume effective for 50% of the cells, read-out: ED50 (the source's name)
Text: as §1
(3) Leiomyosarcoma cells of human.
as §2, §3

[3] = side-effects on normal cells, mouse foot pad cells (Example 9); assay type: cell-based; conditions: mouse, foot pad cells; for cytotoxicity: MIC for Ehlrich cancerous cells versus ED50 for normal cells, read-out: normal cells damaged at the minimum dose inhibiting multiplication of the cancerous cells; for CC50 at 72 h: Table 8, normal cells, procedures of Examples 6-8, read-out: ED50
Protocol: as §2
(§4) Using the same procedures as in Examples 6-8, it was investigated whether the compound of the invention causes side-effects on normal cells.
(§5) ED50 for normal cells mean that this dose will inhibit the normal propagation of 50% of unattacked cells (that is, it may cause a harmful influence upon normal cells), while MIC for cancerous cells means that this dose will inhibit the multiplication of 100% of cancerous cells. Consequently when MIC of a compound for cancerous cells exceeds ED50 of the same for normal cells, it is considered that this compound must have side-effects.

mouse foot pad cells = assay: as above; assay type: cell-based; conditions: for MIC: Mus musculus, 72 h, Table 8, normal cells, procedures of Examples 6-8
Protocol: as §2, §4, §5

[4] = test system: cancerous and tumorous cells; assay: tests of carcinostatic effect (several tests including a biological test); conditions: high dose sometimes leads to less effect than a low dose
Text: The present invention relates to carcinostatic compounds and compositions and a process for producing the same chiefly containing 5-fluorouracil derivatives (hereinafter referred to as 5-FU). 5-FU and its various derivatives are known to act as carcinostatic agents which disrupt cancerous cells or depress the multiplication thereof. […] That is to say, in spite of the fact that a remarkable carcinostatic effect was achnowledged using a low dose, a high dose sometimes leads to less carcinostatic effects than a low dose. […] In general, it can be easily presumed that these acylated 5-FU compounds, having the substituent group of NH, are to be obtained in acylation with the reagents represented by the general formula such as RCOX, wherein R represents an acyl group and X is halogen and (RCO)2 O, wherein R is an acyl group. However, 3-N-acyl-5-FU cannot be obtained directly from 5-FU because the acylation will preferably occur at the 1-position of 5-FU when 5-FU is reacted with the reagents under normal conditions. […]
In addition, the composition has many other advantageous features, e.g., only a low dose is necessary to be effective so that harmful side-effects are avoided as regards the normal cells. […] Furthermore, it is believed that the 5-FU ring is readily incorporated into RNA as a substituent for uracil. […]

[5] = 30 mg/kg daily, total 210 mg/kg
[6] = Tables 3 and 4 (Sarcoma 180 mice and AH 130 rats)
[7] = Example 9, read-out: MIC for Ehrich cancerous cells
[8] = Table 5, minimum inhibitory concentration, three days, read-out: MIC
[9] = Table 6, minimum inhibitory concentration, three days, read-out: MIC
[10] = Table 7, minimum inhibitory concentration, three days, read-out: MIC
[11] = 100 mg/kg daily, total 700 mg/kg
[12] = 200 mg/kg daily, total 1400 mg/kg
[13] = 90 mg/kg daily, total 630 mg/kg

Row | SMILES | toxic side-effects with increasing amount administered (Sarcoma 180; [6]) | toxicity [1, 5] | ratio of tumor in wt. [1, 5] | MIC (Ehrich cancerous cells; [7]) | MIC (Ehrich cancerous cells; [8]) | IC50 (Ehrich cancerous cells; Table 5, three days) | IC50 ([2]; Table 6, three days) | MIC [2, 9] | IC50 (Leiomyosarcoma cells; Table 7, three days) | MIC (Leiomyosarcoma cells; [10]) | cytotoxicity [3] | CC50 at 72 h [3] | MIC (mouse foot pad cells) | toxicity (Sarcoma 180; [11]) | ratio of tumor in wt. (Sarcoma 180; [11]) | also measured
1 | O=c1[nH]cc(F)c(=O)[nH]1 [5-FU, 5-fluorouracil] | increasing the amount of the compound administered produces toxic results | + | 0.55 | 2.5 µg/mL (≈ 19.2 µM) | 2.5 µg/mL (≈ 19.2 µM) | 1 µg/mL (≈ 7.69 µM) | 1.25 µg/mL (≈ 9.61 µM) | 2.5 µg/mL (≈ 19.2 µM) | 1.25 µg/mL (≈ 9.61 µM) | 2.5 µg/mL (≈ 19.2 µM) | 50% | 2.5 µg/mL (≈ 19.2 µM) | 10 µg/mL (≈ 76.9 µM) |  |  | toxicity (Sarcoma 180; 10 mg/kg daily, total 70 mg/kg): -; ratio of tumor in wt. (Sarcoma 180; 10 mg/kg daily, total 70 mg/kg): 0.840; toxicity (Sarcoma 180; [5]): +; ratio of tumor in wt. (Sarcoma 180; [5]): 0.540; toxicity ([1]; 10 mg/kg daily, total 70 mg/kg): -; ratio of tumor in wt. ([1]; 10 mg/kg daily, total 70 mg/kg): 0.72; MIC (Ehrich cancerous cells; Table 9 and text, read-out: MIC (Elrich cancerous cells)): 2.5 µg/mL (≈ 19.2 µM); MIC ([2]; Table 9, read-out: MIC (human thyroid cancerous cells)): 2.5 µg/mL (≈ 19.2 µM); MIC (Leiomyosarcoma cells; Table 9, read-out: MIC (leiomysarcoma)): 2.5 µg/mL (≈ 19.2 µM)
2 | Cc1ccccc1C(=O)n1c(=O)[nH]cc(F)c1=O [3-N-o-toluyl-5-FU, 3-N-o-toluyl-5-fluorouracil] | does not produce toxic side-effects | - | 0.84 | 2 µg/mL (≈ 8.06 µM) | 2 µg/mL (≈ 8.06 µM) | 1 µg/mL (≈ 4.03 µM) | 0.6 µg/mL (≈ 2.42 µM) | 1.25 µg/mL (≈ 5.04 µM) | 0.3 µg/mL (≈ 1.21 µM) | 1.25 µg/mL (≈ 5.04 µM) | < 50% | 2.5 µg/mL (≈ 10.1 µM) | 10 µg/mL (≈ 40.3 µM) | - | 0.367 | toxicity (Sarcoma 180; 50 mg/kg daily, total 350 mg/kg): -; ratio of tumor in wt. (Sarcoma 180; 50 mg/kg daily, total 350 mg/kg, oral powder mixed with water): 0.550; toxicity [1, 11]: -; ratio of tumor in wt. ([1]; 100 mg/kg daily, total 700 mg/kg, oral powder): 0.35; number of molecules for ED50 relative to 5-FU (Ehrich cancerous cells; number of molecules as reference standard): half that of 5-FU; MIC compared with 5-FU (Ehrich cancerous cells; weight concentration and molarity): apparently superior to 5-FU in both weight concentration and molarity; dose in weight concentration for carcinostatic effects, compared with 5-FU ([2]; Table 6): less than half the dose in weight concentration than that of 5-FU; carcinostatic efficacy compared with 5-FU (Leiomyosarcoma cells; weight concentration, Table 7): considerably superior to 5-FU; side-effects compared with 5-FU (mouse foot pad cells; MIC for Ehrich cancerous cells versus ED50 for normal cells): less side-effects than 5-FU
3 | O=c1[nH]c(=O)n(C2CCCO2)cc1F (centres unmarked) [FT-207] |  |  |  |  |  |  |  |  |  |  |  |  |  | - | 0.516 | toxicity (Sarcoma 180; [12]): +; ratio of tumor in wt. (Sarcoma 180; [12]): 0.418; toxic side-effects with increasing amount administered (Sarcoma 180; mouse, in vivo): increasing the amount of the compound administered produces toxic results; toxicity [1, 13]: -; ratio of tumor in wt. [1, 13]: 0.60; toxicity [1, 12]: +; ratio of tumor in wt. [1, 12]: 0.35
4 | Cc1ccccc1C(=O)n1cc(F)c(=O)n(C(=O)c2ccccc2C)c1=O [1,3-di-N-o-toluyl-5-FU] |  |  |  |  |  |  |  |  |  |  |  |  |  |  |  | carcinostatic effect, stability of the effect [4]: extremely unstable
